Data set [1] concerns viable peripheral blood mononuclear cells (PBMC). Nature of the data set: Cell viability after SeMal incubation. The format is cell-based. Particulars: at working concentrations. As to the method:
(§1) 3×10^6 viable, paraformaldehyde-fixed, or fixed and permeabilized peripheral blood mononuclear cells (PBMC) were incubated for 15 min with the indicated concentration of SeMal reagent in 0.2 ml PBS. Binding reactions were stopped by the addition of 5-fold excess volume of Cell Staining Buffer (Fluidigm) followed by incubation with Iridium using standard protocols. Data representations are from gated viable single cells. Cell viability […] incubation (for the viable cell condition) was >98%.

Data set [2] concerns peripheral blood mononuclear cells (PBMC). As to the kind of experiment: Labeling of PBMC with SeMal reagents, mass cytometry. The class given is cell-based. Particulars: viable, fixed and fixed and permeabilized PBMC. The protocol:
as §1

The format of data set [3] is physicochemical. As to the method:
Synthesis of Compound 1: Selenium (31.0 mg, 0.39 mmol, 1.00 equiv.) was suspended in an aqueous solution of 1M NaOH (6 mL) under Ar atmosphere. To the solution, Rongalite (i.e., sodium hydroxymethanesulfinate, Na^+HOCH2SO2^−) (120.0 mg, 0.78 mmol, 2.00 equiv.) was added and stirred vigorously. Then, the reaction solution was heated to 80° C. using an oil bath. After reacting for 0.5 h, hepta-4,6-diynoic acid (44.0 mg, 0.36 mmol, 0.92 equiv.) in ethanol (4 mL) was added and the reaction mixture was reacted at 80° C. for an additional 5 h. The reaction was allowed to cool to room temperature and diluted with a saturated NH4Cl aqueous solution (10 mL). The solution was transferred to separatory funnel and extracted with EtOAc (20 mL×3). The combined organic layer was washed with brine (50 mL) and dried over MgSO4, filtered, concentrated, and purified by flash chromatography (20:1 hexanes:ethyl acetate to 10:1 to 5:1 to 2:1 to 1:1) to yield selenium compound 1 in 45% yield (36 mg). Isotopically pure compounds were also prepared by following the above described procedure.

Structures are written as SMILES.

For the molecule `O=C(CCc1ccc[se]1)NCCN1C(=O)C=CC1=O` [Compound 2], the “toxicity when labeling viable cells” value in data set [1] is given as “non-toxic”. In addition, the “labeling of PBMC” value in data set [2] is given as “effectively label”. As to `O=C(O)CCc1ccc[se]1` [Compound 1], the stability on storage result in data set [3] is listed as “sufficient stability”.

The values above are taken from patent US20240262818A1, “Selenium Maleimide Compounds And Uses Thereof” (THE UNIVERSITY OF NORTH CAROLINA AT CHAPEL HILL, priority 2021, published 2024).
